Results on 20 molecules are retold here after PMC10780244, “Antileishmanial Effect of 1,5- and 1,8-Substituted Fused Naphthyridines” (Molecules, 2023).

The subject of series [1] is axenic iRFP-L. infantum amastigotes from bone marrow cells. Description: Axenic amastigote viability assay (iRFP fluorescence, first screening). The format is cell-based. To be noted: Leishmania infantum, Bone marrow cell, cut-off 25 µM, 72 h, read-out: Axenic Amastigotes (concentration with inhibition). The protocol:
(§1) The 1,5- and 1,8-fused naphthyridine derivatives were evaluated as antileishmanial agents in assays using two forms of L. infantum amastigotes: axenic amastigotes recovered from bone marrow cells of infected BALB/c mice and intramacrophagic amastigotes obtained from splenic explants of the same subjects. The L. infantum strain used is a genetically modified strain previously engineered by our group to constitutively express the infrared protein iRFP from Rhodopseudomonas palustris bacteriophytochrome (iRFP L. infantum). This strain allows monitoring the viability of both forms of the parasite by quantifying the fluorescence emitted at 700 nm by the iRFP protein produced by living amastigotes.
(§2) Amastigotes obtained from mouse bone marrow cells were used to perform a first screening with the complete series of fused 1,5- and 1,8-naphthyridines. […] The toxicity of these selected compounds was assessed in non-infected splenic cells and the cytotoxic concentration (CC50) value obtained was used to calculate the selective index (SI). The oral tolerability of these same compounds was tested by calculating the viability of murine intestinal organoids exposed to two concentrations (50 and 25 µM).
To obtain iRFP-L. infantum axenic amastigotes, femur and tibia were carefully cut at both ends, and marrow cells were removed by passing PBS through the medullary cavity with a 29G needle. The bone marrow cell suspension was filtered through a 100 µm cell strainer and centrifuged at 3500× g for 10 min at room temperature. After centrifugation, cells were resuspended in amastigote culture medium: 15 mM KCl; 136 mM KH2PO4; 10 mM K2HPO4·3H2O; 0.5 mM MgSO4. 7H2O; 24 mM NaHCO3; 22 mM glucose; 1 mM glutamine, 1xRPMI 1640 vitamin mix (Sigma-Aldrich, Merck, Darmstadt, Germany), 10 mM folic acid, 100 mM adenosine, 1xRPMI amino acid mix (Sigma-Aldrich, Merck, Darmstadt, Germany), 5 mg/mL hemin, antibiotic cocktail, 25 mM MES and 10% FBS, and incubated at 37 °C.
To test the antileishmanial effect of naphthyridines on axenic amastigotes, 40 μL of a suspension containing 3 × 10^4 iRFP-L. infantum parasites per well were incubated with another 40 μL of the drugs dilutions in amastigote culture medium with 7.5% FBS. Incubations were performed in 384-well black microtiter plates with an optical bottom at 37 °C and 5% CO2 for 72 h. Solutions of 0.1% (v/v) DMSO and 10 μM AMB were used as negative and positive controls, respectively. The assays were performed by triplicate.
(§3) The viability of axenic and intramacrophage amastigotes was calculated measuring the fluorescence emitted at 700 nm by the iRFP protein from live parasites and recorded by an Odyssey infrared imaging system (Li-Cor, NE, USA). The fluorescence emitted by the negative control wells was considered 100% viability, whereas the fluorescence emitted by the positive control wells, was adjusted to 0% viability.

Series [2] relates to intramacrophagic iRFP-L. infantum amastigotes from murine spleens. The series is described as follows: Ex vivo intramacrophagic amastigote viability assay (iRFP fluorescence). Conditions: for EC50: Leishmania infantum, ex vivo murine splenic explants, 72 h, read-out: Intracellular Amastigotes EC50; for antileishmanial activity against Leishmania amastigotes (in words): summary in discussion. The format is cell-based, Leishmania infantum. The protocol: as §1, §2
Intramacrophagic amastigotes were obtained by cutting spleens into small pieces that were incubated for 25 min with 0.5 mL of collagenase D (2 mg/mL) (Merck, Darmstadt, Germany) dissolved in 4.5 mL buffer (10 mM HEPES, pH 7.4, 150 mM NaCl, 5 mM KCl, 1 mM MgCl2 and 1.8 mM CaCl2). The cell suspension was filtered through a 100 µm cell strainer. After erythrocyte lysis (150 mM NH4Cl, 1 mM KHCO3, 0.1 mM EDTA), splenocytes were centrifuged three times at 500× g for 7 min at 4 °C, with PBS washes between each centrifugation. The splenocyte suspension containing intramacrophagic amastigotes was resuspended in RPMI medium (Gibco, Fisher Scientific, Waltham, MA, USA) supplemented with 20% FBS, 1 mM sodium pyruvate, 24 mM NaHCO3, 2 mM L-glutamine, 1× RPMI vitamins, 25 mM HEPES and antibiotic cocktail.
For the ex vivo intramacrophagic amastigote assay, 40 μL of one-half or one-third serial dilutions of each diluted in supplemented RPMI medium, were added to black 384-well optical-bottom black plates containing 40 μL of murine splenocytes obtained as described above. Positive controls (containing 10 μM of AMB) and negative controls (containing 0.1% v/v DMSO) were included. The plates were incubated at 37 °C and 5% CO2, for a maximum period of 72 h and the assays were performed by triplicate.
as §3
Fluorescence emitted by intramacrophage amastigotes were plotted against the drug concentration using the nonlinear fit analysis provided by the Sigma Plot 10.1 statistical package to obtain EC50 values.

The nature of series [3]: Cytotoxicity in uninfected murine splenic cells (alamarBlue). It counts as cell-based, mouse. Conditions: mouse; uninfected splenic cells, 72 h, alamarBlue; read-out: Mouse Splenic Macrophages CC50. On the procedure: (§4) Amastigotes obtained from mouse bone marrow cells were used to perform a first screening with the complete series of fused 1,5- and 1,8-naphthyridines. […] The toxicity of these selected compounds was assessed in non-infected splenic cells and the cytotoxic concentration (CC50) value obtained was used to calculate the selective index (SI). The oral tolerability of these same compounds was tested by calculating the viability of murine intestinal organoids exposed to two concentrations (50 and 25 µM). In order to assess the in vitro safety of the naphthyridines, cytotoxicity assays were carried out in ex vivo splenic explants from uninfected mice, which were prepared as previously described to obtain intramacrophagic amastigotes. Cells were seeded at a density of 1 × 10^6 cells per well in 96-well plates containing the prediluted compounds and incubated at 37 °C and 5% CO2 during 72 h. AlamarBlue assay (Invitrogen, Fisher Scientific, Waltham, MA, USA) was used to estimate cell viability following manufacturer’s recommendations. The assays were performed by triplicate. Absorbance of viable cells vs. compound concentrations were fitted by nonlinear analysis using the Sigma Plot 10.1 statistical package to calculate the cytotoxic concentration 50 (CC50) values. Selectivity index (SI) was calculated as the ratio between CC50 and the EC50 values of intramacrophagic amastigotes.
In general terms: The colour change of resazurin is a common sign of viable cells or microbes.

Series [4] relates to mouse splenic macrophages. The series is described as above. Conditions: summary in discussion. The format is cell-based. The protocol: as §4
The test system of series [5] is leishmanial DNA topoisomerase IB (LdTopIB). Description: Relaxation of supercoiled plasmid DNA assay. The format is biochemical, Leishmania. Conditions: 100 μM of compounds, 1 min at 37 °C, in words. On the procedure: page 2: DNA DMSO 6b8a8b8c9b10b11a13a13b14a7c8d15b Relaxationof supercoiled plasmid DNA assay. Each reaction contains one unit of purified leishmanial DNA topisomeraseIB enzyme (LdTopIB), 100 μM ofcompounds, 0.5μg of supercoiled […], 10 mM Tris-HCl buffer pH 7.5, 5 mM MgCl 2, 0.1 mM EDTA, 15 μg/mL bovine serum albumin, 150 mM KCl. Reaction mixtures were incubated 1 min at 37 °C and stopped by the addition of 4 μL loading buffer (5% sarkosyl, 0.12% bromophenol blue, 25% glycerol). The topoisomerswere resolved in 1% agarose gels by electrophoresis in 0.1 M Tris borate EDTA buffer (pH 8.0) at 2 V/cm for 16 h and visualized with UV illumination after ethidium bromide (0.5μg/mL) staining. […]

Series [6] relates to recombinant human DNA topoisomerase IB (hTopIB). Also on record: method as in PMID 31229877, PMID 32279049, PMID 33962152; dose or concentration left out as unconfirmed. Conditions: cited from earlier work.
The subject of another series is two cancer cell lines. Also on record: method as in PMID 31229877, PMID 32279049, PMID 33962152. To be noted: cited from earlier work.

Structures are written as SMILES.

Broadly, the EC50 is the concentration giving half of the maximal effect. Turning to `Fc1ccc2c(c1)-c1nc3ncccc3c(-c3ccccc3)c1CO2` [Compound 11b], the minimal effective concentration in series [1] is over 25 µM. For the same molecule, the EC50 in series [2] was over 20 µM.
Turning to `O=C1Oc2ccccc2C2Nc3cccnc3[C@@H](c3ccccc3)C12` (stereo partly shown) [Compound 6a], the minimal effective concentration in series [1] was over 25 µM.
As for `c1ccc(-c2c3c(nc4cccnc24)-c2ccccc2OC3)cc1` [Compound 5a], the minimal effective concentration in series [1] was over 25 µM.
As for `Brc1ccc2nc3c(c(-c4ccccc4)c2n1)COc1ccccc1-3` [Compound 5b], in series [1], the minimal effective concentration is over 25 µM.
As for `Cc1ccc(S(=O)(=O)N2Cc3c(nc4cccnc4c3-c3ccccc3)-c3ccccc32)cc1` [Compound 9a], the minimal effective concentration in series [1] was over 25 µM.
For the molecule `O=c1oc2ccccc2c2nc3cccnc3c(-c3ccccc3)c12` [Compound 7a], the minimal effective concentration in series [1] is over 25 µM.
With `O=c1oc2ccc(F)cc2c2nc3ncccc3c(-c3ccccc3)c12` [Compound 13c], the minimal effective concentration in series [1] is over 25 µM. Moreover, in series [2], the EC50 was over 20 µM.
With `COc1ccc2c(n1)[C@@H](c1ccccc1)C1C(=O)Oc3ccccc3C1N2` (stereo partly shown) [Compound 6c], in series [1], the minimal effective concentration is over 25 µM.
With `O=C1Oc2ccccc2C2Nc3ncc(Br)cc3[C@@H](c3ccccc3)C12` (stereo partly shown) [Compound 12b], in series [1], the minimal effective concentration was over 25 µM. For the same molecule, the EC50 in series [2] is over 20 µM.
In the case of `COc1ccc2nc3c(c(-c4ccccc4)c2n1)COc1ccccc1-3` [Compound 5c], in series [1], the minimal effective concentration was over 25 µM.
As for `COc1ccc(-c2c3c(nc4ncccc24)-c2ccccc2OC3)cc1` [Compound 11c], the minimal effective concentration in series [1] is over 25 µM. The EC50 in series [2] was over 20 µM.
As for `c1ccc([C@@H]2c3ncccc3NC3c4ccccc4OCC32)cc1` (stereo partly shown) [Compound 4a], the minimal effective concentration in series [1] is over 25 µM.
Broadly, the CC50 is the concentration that lowers cell viability or growth by half. Regarding `Cc1ccc(S(=O)(=O)N2Cc3c(nc4ncccc4c3-c3ccccc3)-c3ccccc32)cc1` [Compound 15a], in series [1], the minimal effective concentration is under 25 µM. Further, in series [2], the EC50 worked out at 67.4 ± 9.78 µM and the “antileishmanial activity against Leishmania amastigotes (in words)” value was “significant antileishmanial activity”. Besides, in series [2] (ratio CC50 (splenic macrophages) / EC50 (intramacrophagic amastigotes)), the SI was found to be 0.1. In addition, the CC50 at 72 h in series [3] was 8.78 ± 2.21 µM. Besides, in series [4], the “toxicity (in words)” value was “significant toxicity”. Also, in series [5], the LdTopIB inhibitory activity entry is recorded as “did not show leishmanial DNA topoisomerase IB (LdTopIB) inhibitory activity”. For the same molecule, the “inhibitory effect on DNA relaxation activity of hTopIB” value in series [6] is “had an inhibitory effect on DNA relaxation activity”. Besides, the “cytotoxic effects on two cancer cell lines (concentration range)” value in the series on two cancer cell lines is 1 to 15 µM.
Consider `O=C1Oc2ccccc2C2Nc3ncccc3[C@@H](c3ccccc3)C12` (stereo partly shown) [Compound 12a], for which the minimal effective concentration in series [1] was over 25 µM. In addition, the EC50 in series [2] is over 20 µM.
In the case of `O=c1oc2ccccc2c2nc3ccc(Br)nc3c(-c3ccccc3)c12` [Compound 7b], the minimal effective concentration in series [1] was over 25 µM.
As for `Cc1ccc2c(c1)C1Nc3ncccc3[C@@H](c3ccccc3)C1CO2` (stereo partly shown) [Compound 10c], the minimal effective concentration in series [1] was over 25 µM. Besides, the EC50 in series [2] was over 20 µM.
The corresponding values for `COc1ccc2nc3c(c(-c4ccccc4)c2n1)CN(S(=O)(=O)c1ccc(C)cc1)c1ccccc1-3` [Compound 9c] are over 25 µM and over 20 µM.
Take `c1ccc([C@@H]2c3cccnc3NC3c4ccccc4OCC32)cc1` (stereo partly shown) [Compound 10a]: in series [1], the minimal effective concentration was over 25 µM. For the same molecule, in series [2], the EC50 was over 20 µM and the “antileishmanial activity against Leishmania amastigotes (in words)” value is reported as “not effective against Leishmania amastigotes”. Also, the “inhibitory effect on DNA relaxation activity of hTopIB” value in series [6] was “had an inhibitory effect on DNA relaxation activity”. Moreover, the “cytotoxic effects on two cancer cell lines (concentration range)” value in the series on two cancer cell lines was 1 to 15 µM.
With `COc1ccc2c(n1)[C@@H](c1ccccc1)C1COc3ccccc3C1N2` (stereo partly shown) [Compound 4c], the minimal effective concentration in series [1] was over 25 µM.
Take `Cc1ccc(S(=O)(=O)N2Cc3c(nc4ccc(Br)nc4c3-c3ccccc3)-c3ccccc32)cc1` [Compound 9d]: the minimal effective concentration in series [1] is over 25 µM. In series [2], the EC50 was over 20 µM.
